# Data published in ChEMBL document CHEMBL1781926, “Synthesis of 1-naphtylpiperazine derivatives as serotoninergic ligands and their evaluation as antiproliferative agents” (Eur J Med Chem, 2011).
# Activity calls are given as the source filed them. The calls are words filed in the database; no cut-off is given here.
# How the values were obtained:
# PC-3 [1] = experiment: Cell cycle arrest in human PC3 cells assessed as accumulation at G1 phase at 15 uM after 48 hrs using propidium iodide staining by flow cytometry (reference value: 54.14 %); assay type: functional
# PC-3 [2] = experiment: Induction of apoptosis in human PC3 cells at 15 uM after 24 hrs using propidium iodide staining by flow cytometry (reference value: 1.27 %); assay type: functional
# PC-3 [3] = experiment: Cell cycle arrest in human PC3 cells assessed as accumulation at S phase at 15 uM after 48 hrs using propidium iodide staining by flow cytometry (reference value: 38.16 %); assay type: functional
# PC-3 [4] = experiment: Cell cycle arrest in human PC3 cells assessed as accumulation at G2 phase at 15 uM after 72 hrs using propidium iodide staining by flow cytometry (reference value: 20.18 %); assay type: functional
# PC-3 [5] = experiment: Cell cycle arrest in human PC3 cells assessed as accumulation at S phase at 15 uM after 24 hrs using propidium iodide staining by flow cytometry (reference value: 34.84 %); assay type: functional
# PC-3 [6] = experiment: Cell cycle arrest in human PC3 cells assessed as accumulation at S phase at 15 uM after 72 hrs using propidium iodide staining by flow cytometry (reference value: 37.73 %); assay type: functional
# PC-3 [7] = experiment: Cell cycle arrest in human PC3 cells assessed as accumulation at G1 phase at 15 uM after 72 hrs using propidium iodide staining by flow cytometry (reference value: 42.19 %); assay type: functional
# PC-3 [8] = experiment: Antiproliferative activity against human PC3 cells assessed as growth inhibition after 96 hrs by SRB assay; assay type: functional, cell-based
# PC-3 [9] = experiment: Induction of apoptosis in human PC3 cells at 15 uM after 48 hrs using propidium iodide staining by flow cytometry (reference value: 0.84 %); assay type: functional
# PC-3 [10] = experiment: Cell cycle arrest in human PC3 cells assessed as accumulation at G2 phase at 15 uM after 24 hrs using propidium iodide staining by flow cytometry (reference value: 18.19 %); assay type: functional
# PC-3 [11] = experiment: Cell cycle arrest in human PC3 cells assessed as accumulation at G1 phase at 15 uM after 24 hrs using propidium iodide staining by flow cytometry (reference value: 46.97 %); assay type: functional
# PC-3 [12] = experiment: Cell cycle arrest in human PC3 cells assessed as accumulation at G2 phase at 15 uM after 48 hrs using propidium iodide staining by flow cytometry (reference value: 13.36 %); assay type: functional
# PC-3 [13] = experiment: Induction of apoptosis in human PC3 cells at 15 uM after 72 hrs using propidium iodide staining by flow cytometry (reference value: 1.79 %); assay type: functional
# [14] = target: RAC-alpha serine/threonine-protein kinase (Homo sapiens) (UniProt P31749); experiment: Inhibition of serotonin-induced AKT phosphorylation in human PC3 cells at 15 uM after 48 hrs by Western blotting; assay type: cell-based; conditions: PC-3
# RAC-alpha serine/threonine-protein kinase (Homo sapiens), sequence (P31749 whole entry): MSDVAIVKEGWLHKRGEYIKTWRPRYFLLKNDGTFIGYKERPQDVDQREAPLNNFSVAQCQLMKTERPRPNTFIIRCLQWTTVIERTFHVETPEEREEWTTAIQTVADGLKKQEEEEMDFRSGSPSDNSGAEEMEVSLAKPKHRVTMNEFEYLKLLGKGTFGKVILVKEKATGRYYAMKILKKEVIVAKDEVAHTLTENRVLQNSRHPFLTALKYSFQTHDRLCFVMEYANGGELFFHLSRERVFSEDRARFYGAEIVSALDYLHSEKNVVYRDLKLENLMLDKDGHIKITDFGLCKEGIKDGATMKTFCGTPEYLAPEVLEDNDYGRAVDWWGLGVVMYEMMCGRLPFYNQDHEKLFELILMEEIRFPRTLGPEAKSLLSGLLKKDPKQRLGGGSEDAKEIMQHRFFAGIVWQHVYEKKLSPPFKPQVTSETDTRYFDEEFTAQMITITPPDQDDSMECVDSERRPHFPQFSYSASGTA
# PC-3 [15] = experiment: Inhibition of serotonin-induced MAPK phosphorylation in human PC3 cells at 15 uM after 48 hrs by Western blotting; assay type: cell-based
# [16] = target: T1, Adrenergic receptor alpha-2 (Rattus norvegicus, UniProt P22086+P19328+P22909); experiment: Displacement [3H]yohimbine from alpha 2 adrenergic receptor in rat brain cortex homogenates after 30 mins by liquid scintillation counting; assay type: tissue-based
# T1 sequence (P22086 whole entry): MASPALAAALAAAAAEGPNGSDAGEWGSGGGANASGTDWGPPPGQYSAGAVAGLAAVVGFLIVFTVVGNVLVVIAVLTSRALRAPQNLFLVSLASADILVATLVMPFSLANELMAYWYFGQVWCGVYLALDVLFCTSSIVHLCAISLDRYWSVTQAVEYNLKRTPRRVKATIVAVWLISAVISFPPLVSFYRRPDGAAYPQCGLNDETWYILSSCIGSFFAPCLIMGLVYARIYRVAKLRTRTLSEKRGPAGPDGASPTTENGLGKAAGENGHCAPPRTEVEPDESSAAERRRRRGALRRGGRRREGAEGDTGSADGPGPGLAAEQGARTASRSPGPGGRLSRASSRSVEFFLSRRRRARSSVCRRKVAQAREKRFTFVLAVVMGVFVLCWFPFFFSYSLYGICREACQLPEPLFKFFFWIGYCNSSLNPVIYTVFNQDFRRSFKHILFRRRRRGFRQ
# T1 sequence (P19328 whole entry): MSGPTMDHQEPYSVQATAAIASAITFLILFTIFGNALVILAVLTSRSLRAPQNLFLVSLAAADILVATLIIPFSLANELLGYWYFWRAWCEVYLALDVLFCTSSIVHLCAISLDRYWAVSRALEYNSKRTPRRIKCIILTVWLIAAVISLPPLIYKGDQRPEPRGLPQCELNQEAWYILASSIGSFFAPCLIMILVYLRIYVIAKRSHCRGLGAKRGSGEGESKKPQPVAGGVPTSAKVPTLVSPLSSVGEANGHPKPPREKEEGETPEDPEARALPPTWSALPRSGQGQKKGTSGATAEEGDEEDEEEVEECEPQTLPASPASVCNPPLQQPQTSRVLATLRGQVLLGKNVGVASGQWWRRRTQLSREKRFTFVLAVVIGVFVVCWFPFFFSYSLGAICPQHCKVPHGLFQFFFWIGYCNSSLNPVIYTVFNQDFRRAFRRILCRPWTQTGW
# T1 sequence (P22909 whole entry): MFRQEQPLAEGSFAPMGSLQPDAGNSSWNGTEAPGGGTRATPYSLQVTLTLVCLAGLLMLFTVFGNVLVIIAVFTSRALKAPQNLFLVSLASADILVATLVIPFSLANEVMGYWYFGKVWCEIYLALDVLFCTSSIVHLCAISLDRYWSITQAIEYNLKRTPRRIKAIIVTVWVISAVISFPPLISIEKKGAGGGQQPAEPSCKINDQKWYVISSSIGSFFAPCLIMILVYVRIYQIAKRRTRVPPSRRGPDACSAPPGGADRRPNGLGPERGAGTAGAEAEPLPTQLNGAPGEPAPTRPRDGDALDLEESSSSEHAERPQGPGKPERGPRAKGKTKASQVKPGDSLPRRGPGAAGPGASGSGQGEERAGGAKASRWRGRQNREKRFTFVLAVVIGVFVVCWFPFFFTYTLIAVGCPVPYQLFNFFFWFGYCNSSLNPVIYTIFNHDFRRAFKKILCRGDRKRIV
# [17] = target: T2, 5-hydroxytryptamine receptor 2C (Rattus norvegicus, UniProt P08909); experiment: Displacement of [3H]mesulergine from 5HT2C receptor in Sprague-Dawley rat frontal cortical homogenates after 15 mins
# T2 sequence (P08909 whole entry): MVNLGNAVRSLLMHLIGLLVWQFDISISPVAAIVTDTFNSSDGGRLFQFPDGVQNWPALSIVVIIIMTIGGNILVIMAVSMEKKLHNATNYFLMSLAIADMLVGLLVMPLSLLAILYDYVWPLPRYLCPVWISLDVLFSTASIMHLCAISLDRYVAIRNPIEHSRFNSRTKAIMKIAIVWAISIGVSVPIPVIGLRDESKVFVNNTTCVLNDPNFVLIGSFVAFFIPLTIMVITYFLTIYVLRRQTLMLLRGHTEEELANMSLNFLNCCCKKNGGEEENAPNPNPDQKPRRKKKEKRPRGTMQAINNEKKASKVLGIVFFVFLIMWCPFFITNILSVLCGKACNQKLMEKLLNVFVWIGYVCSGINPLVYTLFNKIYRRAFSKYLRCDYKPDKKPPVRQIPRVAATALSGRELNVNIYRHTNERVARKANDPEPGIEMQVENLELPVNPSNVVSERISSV
# [18] = target: T3, Adrenergic receptor alpha-1 (Rattus norvegicus, UniProt P15823+P23944+P43140); experiment: Displacement [3H]prazosin from alpha1 adrenergic receptor in rat brain cortex homogenates after 30 mins by liquid scintillation counting; assay type: tissue-based
# T3 sequence (P15823 whole entry): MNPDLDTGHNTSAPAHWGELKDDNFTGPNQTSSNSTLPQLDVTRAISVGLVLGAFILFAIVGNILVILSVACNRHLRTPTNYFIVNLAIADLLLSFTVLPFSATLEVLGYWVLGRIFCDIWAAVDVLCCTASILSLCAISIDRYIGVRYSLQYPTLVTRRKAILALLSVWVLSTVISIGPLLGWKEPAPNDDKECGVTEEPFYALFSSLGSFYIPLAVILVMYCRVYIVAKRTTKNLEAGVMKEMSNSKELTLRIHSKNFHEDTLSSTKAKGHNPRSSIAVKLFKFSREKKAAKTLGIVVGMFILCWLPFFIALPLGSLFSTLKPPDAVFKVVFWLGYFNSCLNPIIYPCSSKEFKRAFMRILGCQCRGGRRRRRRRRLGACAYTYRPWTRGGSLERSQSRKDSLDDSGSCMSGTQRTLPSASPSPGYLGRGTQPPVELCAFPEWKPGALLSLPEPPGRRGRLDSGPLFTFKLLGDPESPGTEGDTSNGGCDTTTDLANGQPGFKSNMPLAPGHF
# T3 sequence (P23944 whole entry): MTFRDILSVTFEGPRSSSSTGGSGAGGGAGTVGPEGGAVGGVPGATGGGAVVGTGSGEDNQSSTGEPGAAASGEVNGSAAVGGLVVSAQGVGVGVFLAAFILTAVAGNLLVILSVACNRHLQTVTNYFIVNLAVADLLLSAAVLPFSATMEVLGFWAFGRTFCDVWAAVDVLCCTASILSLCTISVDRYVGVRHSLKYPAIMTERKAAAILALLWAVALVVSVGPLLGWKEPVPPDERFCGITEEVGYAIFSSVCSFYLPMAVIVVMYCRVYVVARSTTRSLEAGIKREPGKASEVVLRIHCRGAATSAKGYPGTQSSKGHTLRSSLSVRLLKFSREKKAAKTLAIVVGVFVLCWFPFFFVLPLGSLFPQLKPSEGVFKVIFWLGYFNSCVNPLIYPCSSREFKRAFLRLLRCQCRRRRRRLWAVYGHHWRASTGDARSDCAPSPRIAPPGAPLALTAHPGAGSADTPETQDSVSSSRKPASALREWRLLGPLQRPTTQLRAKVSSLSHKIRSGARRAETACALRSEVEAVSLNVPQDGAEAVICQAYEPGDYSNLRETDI
# T3 sequence (P43140 whole entry): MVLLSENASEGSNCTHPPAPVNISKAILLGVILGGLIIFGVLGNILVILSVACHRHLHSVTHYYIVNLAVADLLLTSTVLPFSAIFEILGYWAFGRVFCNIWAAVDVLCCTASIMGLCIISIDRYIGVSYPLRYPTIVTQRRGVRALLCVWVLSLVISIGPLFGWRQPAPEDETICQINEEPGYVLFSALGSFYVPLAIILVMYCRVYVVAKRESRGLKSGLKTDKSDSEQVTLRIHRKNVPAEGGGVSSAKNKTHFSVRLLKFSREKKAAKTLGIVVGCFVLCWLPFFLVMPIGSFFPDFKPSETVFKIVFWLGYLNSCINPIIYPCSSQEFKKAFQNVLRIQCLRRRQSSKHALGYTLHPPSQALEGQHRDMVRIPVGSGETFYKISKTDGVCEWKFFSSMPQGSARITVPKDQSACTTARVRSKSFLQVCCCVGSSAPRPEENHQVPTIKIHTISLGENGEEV
# D(1A) dopamine receptor = D(1A) dopamine receptor (Rattus norvegicus, UniProt P18901); experiment: Displacement of [3H]SCH 23390 from dopamine D1 receptor in rat corpora striatum homogenates after 15 mins by liquid scintillation counting
# D(1A) dopamine receptor, sequence (P18901 whole entry): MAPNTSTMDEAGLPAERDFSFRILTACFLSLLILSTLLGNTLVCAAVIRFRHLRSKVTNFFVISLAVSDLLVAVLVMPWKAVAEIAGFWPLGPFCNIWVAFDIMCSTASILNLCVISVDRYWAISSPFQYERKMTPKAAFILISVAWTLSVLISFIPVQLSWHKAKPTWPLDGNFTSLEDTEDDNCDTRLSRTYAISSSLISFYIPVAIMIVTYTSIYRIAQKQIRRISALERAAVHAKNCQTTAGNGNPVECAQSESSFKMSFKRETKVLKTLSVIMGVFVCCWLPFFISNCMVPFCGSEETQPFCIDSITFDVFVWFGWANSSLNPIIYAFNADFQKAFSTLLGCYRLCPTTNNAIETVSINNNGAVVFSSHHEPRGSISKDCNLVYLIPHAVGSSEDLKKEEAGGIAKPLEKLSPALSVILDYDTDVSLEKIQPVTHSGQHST
# [19] = target: 5-hydroxytryptamine receptor 2A (Rattus norvegicus, UniProt P14842); experiment: Displacement of [3H]Ketanserin from 5HT2A receptor in Sprague-Dawley rat frontal cortical homogenates after 15 mins
# 5-hydroxytryptamine receptor 2A, sequence (P14842 whole entry): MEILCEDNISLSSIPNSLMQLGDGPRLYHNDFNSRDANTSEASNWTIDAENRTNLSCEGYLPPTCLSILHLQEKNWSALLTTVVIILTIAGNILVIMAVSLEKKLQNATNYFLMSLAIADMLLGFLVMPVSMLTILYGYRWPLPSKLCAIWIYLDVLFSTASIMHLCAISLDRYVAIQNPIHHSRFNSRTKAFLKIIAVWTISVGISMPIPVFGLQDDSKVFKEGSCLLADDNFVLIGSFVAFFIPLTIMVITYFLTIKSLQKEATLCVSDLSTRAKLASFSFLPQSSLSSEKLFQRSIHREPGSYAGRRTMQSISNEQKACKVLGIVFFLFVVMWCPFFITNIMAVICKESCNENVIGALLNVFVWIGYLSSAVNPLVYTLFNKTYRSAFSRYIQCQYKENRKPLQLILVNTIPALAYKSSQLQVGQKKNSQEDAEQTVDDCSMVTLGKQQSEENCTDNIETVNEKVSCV
# D(2) dopamine receptor = D(2) dopamine receptor (Rattus norvegicus, UniProt P61169); experiment: Displacement of [3H]spiperone from dopamine D2 receptor in rat corpora striatum homogenates after 15 mins by liquid scintillation counting
# D(2) dopamine receptor, sequence (P61169 whole entry): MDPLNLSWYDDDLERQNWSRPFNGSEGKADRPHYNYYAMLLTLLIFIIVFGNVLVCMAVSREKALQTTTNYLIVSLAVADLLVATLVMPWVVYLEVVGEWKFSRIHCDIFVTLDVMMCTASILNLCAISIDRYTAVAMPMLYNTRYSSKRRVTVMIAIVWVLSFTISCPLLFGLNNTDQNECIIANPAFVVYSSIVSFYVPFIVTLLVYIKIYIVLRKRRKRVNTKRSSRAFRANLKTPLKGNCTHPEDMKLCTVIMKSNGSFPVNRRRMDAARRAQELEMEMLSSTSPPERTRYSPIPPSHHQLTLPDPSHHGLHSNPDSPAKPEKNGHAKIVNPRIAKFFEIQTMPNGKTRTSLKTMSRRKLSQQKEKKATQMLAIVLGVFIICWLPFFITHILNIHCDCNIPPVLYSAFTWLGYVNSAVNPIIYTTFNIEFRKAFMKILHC
# [20] = target: T4, 5-hydroxytryptamine receptor 1A (Rattus norvegicus, UniProt P19327); experiment: Displacement of [3H]8-OH-DPAT from 5HT1A receptor in Sprague-Dawley rat brain cortex homogenates after 30 mins by liquid scintillation counting; assay type: tissue-based
# T4 sequence (P19327 whole entry): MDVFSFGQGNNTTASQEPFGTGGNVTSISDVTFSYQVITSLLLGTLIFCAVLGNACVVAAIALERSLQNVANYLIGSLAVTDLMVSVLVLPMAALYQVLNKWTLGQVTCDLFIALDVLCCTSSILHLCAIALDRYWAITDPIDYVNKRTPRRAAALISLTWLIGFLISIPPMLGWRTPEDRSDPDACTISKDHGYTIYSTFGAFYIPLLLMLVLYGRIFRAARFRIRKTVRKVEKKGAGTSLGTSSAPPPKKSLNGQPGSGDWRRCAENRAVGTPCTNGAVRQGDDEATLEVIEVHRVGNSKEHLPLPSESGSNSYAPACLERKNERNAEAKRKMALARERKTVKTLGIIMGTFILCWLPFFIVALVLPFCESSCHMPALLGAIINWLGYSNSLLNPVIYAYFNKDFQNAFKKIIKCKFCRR
smiles,measurement,setting,value
Br.COc1ccccc1N1CCN(CCCCN2C(=O)c3ccccc3C2=O)CC1,Activity,PC-3 [1],49.53%
same,Activity,PC-3 [2],2.42%
same,Activity,PC-3 [3],35.59%
same,Activity,PC-3 [4],11.26%
same,Activity,PC-3 [5],38.16%
same,Activity,PC-3 [6],43.02%
same,Activity,PC-3 [7],45.73%
same,growth inhibition (GI),PC-3 [8],inactive
same,Activity,PC-3 [9],1.77%
same,Activity,PC-3 [10],24.74%
same,Activity,PC-3 [11],37.1%
same,Activity,PC-3 [12],14.88%
same,Activity,PC-3 [13],3.05%
Br.CCCN(CCC)[C@H]1CCc2cccc(O)c2C1,Activity,PC-3 [1],47.78%
same,Activity,PC-3 [2],0.73%
same,Activity,PC-3 [3],37.31%
same,Activity,PC-3 [4],13.17%
same,Activity,PC-3 [5],34.96%
same,Activity,PC-3 [6],36.5%
same,Activity,PC-3 [7],50.34%
same,growth inhibition (GI),PC-3 [8],inactive
same,Activity,PC-3 [9],2.2%
same,Activity,PC-3 [10],24.42%
same,Activity,PC-3 [11],40.62%
same,Activity,PC-3 [12],14.92%
same,inhibition,[14],Active
same,Activity,PC-3 [13],2.65%
same,inhibition,PC-3 [15],inactive
N#C/N=C(\NCCCN1CCN(c2cccc3ccccc23)CC1)c1ccncc1,Ki,[16],878 nM
same,growth inhibition (GI),PC-3 [8],inactive
same,Ki,[17],Not Active
same,Ki,[18],> 10000 nM
N#CNC(=NCCCN1CCN(c2cccc3ccccc23)CC1)c1ccncc1,Ki,D(1A) dopamine receptor,> 10000 nM
same,Ki,[19],172 nM
same,Ki,D(2) dopamine receptor,1600 nM
same,Ki,[20],> 10000 nM
